From patent US12495798B2, “Nicotinamide compound and herbicidal composition comprising compound” (KOREA RESEARCH INSTITUTE OF CHEMICAL TECHNOLOGY, priority 2019, dated 2025)

How the values were obtained:
Test in all cases: Phytotoxicity test for upland field crops (foliar treatment test)
Type in all cases: in vivo
Set-up in all cases: key: 0 (no harm); 9 (complete withered)
cotton = tested on: cotton
Experimental: (§1) Experimental Example 3: Phytotoxicity Test for Upland Field Crops (Foliar Treatment Test)
(§2) Foliar treatment was performed for grown crops and weeds in a square plastic pot having a surface area of 50 cm^2 filled with horticultural soil. As a fertilizer per pot, 0.5 g of horticultural mixed fertilizer (N:P:K=17:21:17) was treated by mixing in the upper soil. Five kinds of crops such as rice, wheat, corn, soybean, and cotton were sown in each pot, and after growing for a certain period in greenhouse conditions (average temperature 30±5° C., light/dark=14/10 hours), test compound solutions were made by diluting with the diluent (33% acetone, 0.1% Tween-20) so that the final treatment amount of the test compounds was 19˜300 g a.i./ha. The prepared test compound solutions were treated using a spray booth (SB6-016) at a treatment amount of 100 ml per 1 m^2 of treatment area. The treated plants were managed under the same greenhouse conditions as above, and external symptoms and phytotoxicity were investigated 7 and 14 days after treatment (after 21 days if necessary). In the evaluation of the phytotoxicity for the crop, the grade of 0 (no harm) to 9 (complete withered) was used. The results of Table 9 were obtained by evaluating crop phytotoxicity value to the untreated control.

corn = tested on: corn
Experimental: as §1, §2

soybean = tested on: soybean
Experimental: as §1, §2

rice = tested on: rice
Experimental: as §1, §2

wheat = tested on: wheat
Experimental: as §1, §2

[1] = 50 g ai/ha, Cotton (7 days after treatment)
[2] = 50 g ai/ha, Cotton (14 days after treatment)
[3] = 100 g ai/ha, Cotton (7 days after treatment)
[4] = 100 g ai/ha, Cotton (14 days after treatment)
[5] = 50 g ai/ha, Corn (7 days after treatment)
[6] = 50 g ai/ha, Corn (14 days after treatment)
[7] = 100 g ai/ha, Corn (7 days after treatment)
[8] = 100 g ai/ha, Corn (14 days after treatment)
[9] = 50 g ai/ha, Soybean (7 days after treatment)
[10] = 50 g ai/ha, Soybean (14 days after treatment)
[11] = 100 g ai/ha, Soybean (7 days after treatment)
[12] = 100 g ai/ha, Soybean (14 days after treatment)
[13] = 50 g ai/ha, Rice (7 days after treatment)
[14] = 50 g ai/ha, Rice (14 days after treatment)
[15] = 100 g ai/ha, Rice (7 days after treatment)
[16] = 100 g ai/ha, Rice (14 days after treatment)
[17] = 50 g ai/ha, Wheat (7 days after treatment)
[18] = 50 g ai/ha, Wheat (14 days after treatment)
[19] = 100 g ai/ha, Wheat (7 days after treatment)
[20] = 100 g ai/ha, Wheat (14 days after treatment)

With `COC(=O)OC(C)N(C(=O)c1ccc(C(F)(F)F)nc1COCc1ncn(C)n1)c1nnnn1C` (stereo not shown) [Compound No. 4-1, methyl(1-(2-(((1-methyl-1H-1,2,4-triazol-3-yl)methoxy)methyl)-N-(1-methyl-1H-tetrazol-5-yl)-6-(trifluoromethyl)nicotinamido)ethyl)carbonate] the “Foliar treatment phytotoxicity, Cotton” value (cotton; [1]) was 3, the “Foliar treatment phytotoxicity, Cotton” value (cotton; [2]) was 8 and the “Foliar treatment phytotoxicity, Cotton” value (cotton; [3]) was 3. The “Foliar treatment phytotoxicity, Cotton” value (cotton; [4]) was 8, the “Foliar treatment phytotoxicity, Corn” value (corn; [5]) was 0 and the “Foliar treatment phytotoxicity, Corn” value (corn; [6]) was 0. For the same molecule, the “Foliar treatment phytotoxicity, Corn” value (corn; [7]) was 0, the “Foliar treatment phytotoxicity, Corn” value (corn; [8]) was 0 and the “Foliar treatment phytotoxicity, Soybean” value (soybean; [9]) was 4. For the same molecule, the “Foliar treatment phytotoxicity, Soybean” value (soybean; [10]) was 6, the “Foliar treatment phytotoxicity, Soybean” value (soybean; [11]) was 4 and the “Foliar treatment phytotoxicity, Soybean” value (soybean; [12]) was 8. The “Foliar treatment phytotoxicity, Rice” value (rice; [13]) was 2, the “Foliar treatment phytotoxicity, Rice” value (rice; [14]) was 6 and the “Foliar treatment phytotoxicity, Rice” value (rice; [15]) was 3. The “Foliar treatment phytotoxicity, Rice” value (rice; [16]) was 7, the “Foliar treatment phytotoxicity, Wheat” value (wheat; [17]) was 0 and the “Foliar treatment phytotoxicity, Wheat” value (wheat; [18]) was 0. The “Foliar treatment phytotoxicity, Wheat” value (wheat; [19]) was 0 and the “Foliar treatment phytotoxicity, Wheat” value (wheat; [20]) was 0.
For `Cn1nnnc1CSc1nc(C(F)(F)F)ccc1C(=S)Nc1nnnn1C` [1-44], the “Foliar treatment phytotoxicity, Cotton” value (cotton; [1]) was 4, the “Foliar treatment phytotoxicity, Cotton” value (cotton; [2]) was 9 and the “Foliar treatment phytotoxicity, Cotton” value (cotton; [3]) was 5. The “Foliar treatment phytotoxicity, Cotton” value (cotton; [4]) was 9, the “Foliar treatment phytotoxicity, Corn” value (corn; [5]) was 5 and the “Foliar treatment phytotoxicity, Corn” value (corn; [6]) was 3. The “Foliar treatment phytotoxicity, Corn” value (corn; [7]) was 5, the “Foliar treatment phytotoxicity, Corn” value (corn; [8]) was 3 and the “Foliar treatment phytotoxicity, Soybean” value (soybean; [9]) was 6. For the same molecule, the “Foliar treatment phytotoxicity, Soybean” value (soybean; [10]) was 7, the “Foliar treatment phytotoxicity, Soybean” value (soybean; [11]) was 6 and the “Foliar treatment phytotoxicity, Soybean” value (soybean; [12]) was 7. For the same molecule, the “Foliar treatment phytotoxicity, Rice” value (rice; [13]) was 6, the “Foliar treatment phytotoxicity, Rice” value (rice; [14]) was 9 and the “Foliar treatment phytotoxicity, Rice” value (rice; [15]) was 6. The “Foliar treatment phytotoxicity, Rice” value (rice; [16]) was 9, the “Foliar treatment phytotoxicity, Wheat” value (wheat; [17]) was 0 and the “Foliar treatment phytotoxicity, Wheat” value (wheat; [18]) was 0. For the same molecule, the “Foliar treatment phytotoxicity, Wheat” value (wheat; [19]) was 0 and the “Foliar treatment phytotoxicity, Wheat” value (wheat; [20]) was 0.
